In patent US20110263507A1 (priority 2007, published 2011):
Read-outs that look alike come from different tables or passages of the source. Where a SMILES comes first, the peptide text is derived from it. Where no end group is shown, it is not given here. [ ]: non-standard residue; d: D form. Ala(indol-4-yl) = N[C@@H](Cc1cccc2[nH]ccc12)C(=O)O; 1Nal = N[C@@H](Cc1cccc2ccccc12)C(=O)O; NMeR = CN[C@@H](CCCNC(=N)N)C(=O)O; pGlu = O=C1CC[C@@H](C(=O)O)N1; Tle = CC(C)(C)[C@H](N)C(=O)O; dOrn = NCCC[C@@H](N)C(=O)O; Orn = NCCC[C@H](N)C(=O)O; Dab = NCC[C@H](N)C(=O)O

Experiments:
hNTS1 = molecular target: T1, hNTS1 (Homo sapiens, UniProt P30989); assay: Radioligand competition binding with [3H]NT, membranes of CHO-K1 cells expressing hNTS1; conditions: for hNTS1 Selectivity: Table 2, hNTS1 over hNTS2
T1 construct: expressed in transfected cells; host or cells: CHO-K1
T1 sequence (P30989 whole entry): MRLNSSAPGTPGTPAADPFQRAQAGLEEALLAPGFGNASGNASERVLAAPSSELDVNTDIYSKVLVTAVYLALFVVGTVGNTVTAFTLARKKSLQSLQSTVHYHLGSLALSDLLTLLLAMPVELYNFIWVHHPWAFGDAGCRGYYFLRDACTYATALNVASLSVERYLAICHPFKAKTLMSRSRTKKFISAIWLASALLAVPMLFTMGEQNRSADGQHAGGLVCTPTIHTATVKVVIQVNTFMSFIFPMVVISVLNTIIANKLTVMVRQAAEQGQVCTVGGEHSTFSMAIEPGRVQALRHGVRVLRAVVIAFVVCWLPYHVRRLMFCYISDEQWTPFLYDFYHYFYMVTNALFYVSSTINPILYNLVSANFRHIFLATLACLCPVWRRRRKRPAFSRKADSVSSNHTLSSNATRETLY
Description: CHO-K1 cells that had been stably transfected separately with the hNTS1 or hNTS2 genes were cultured in 150 mm (500 cm^2) Petri plates with 35 ml of Dulbecco's modified Eagle's medium containing 100 μM minimal essential medium nonessential amino acids (Life Technologies, Inc.) supplemented with 5% (v/v) FetalClone II bovine serum product (Hyclone Labs, Logan, Utah). […] The cellular pellet (in Tris-HCl buffer) was stored at […] until the radioligand binding was performed.
For use in binding assays, crude membrane preparations were prepared by centrifugation of the cellular pellet at 35,600×g for 10 min. The supernatant was decanted and discarded, and the cellular pellet was resuspended in 1 ml of Tris-HCl buffer followed by homogenization with a Brinkmann Polytron at setting 5.5 for 15 s. Centrifugation was repeated as above, the supernatant was decanted and discarded, and the cellular pellet was resuspended in 1 ml of Tris-HCl buffer followed by homogenization. Centrifugation was repeated a third time, the supernatant was discarded, and the final cellular pellet was suspended in 0.5-2.5 ml of Tris-HCl buffer. Protein concentration of the membrane preparation was estimated by the method of Lowry et al. using bovine serum albumin as a standard.
Incubation was at 20° C. for 40 min. The assay was routinely terminated by addition of ice-cold 0.9% NaCl (5×1.5 ml), followed by rapid filtration through a GF/B filter strip that had been pretreated with 0.2% or 2% polyethyleneimine. Details of binding assays have been described previously. […] Data were analyzed using the LIGAND program.

hNTS2 = molecular target: T2, hNTS2 (Homo sapiens, UniProt O95665); assay: Radioligand competition binding with [3H]NT, membranes of CHO-K1 cells expressing hNTS2
T2 construct: expressed in transfected cells; host or cells: CHO-K1
T2 sequence (O95665 whole entry): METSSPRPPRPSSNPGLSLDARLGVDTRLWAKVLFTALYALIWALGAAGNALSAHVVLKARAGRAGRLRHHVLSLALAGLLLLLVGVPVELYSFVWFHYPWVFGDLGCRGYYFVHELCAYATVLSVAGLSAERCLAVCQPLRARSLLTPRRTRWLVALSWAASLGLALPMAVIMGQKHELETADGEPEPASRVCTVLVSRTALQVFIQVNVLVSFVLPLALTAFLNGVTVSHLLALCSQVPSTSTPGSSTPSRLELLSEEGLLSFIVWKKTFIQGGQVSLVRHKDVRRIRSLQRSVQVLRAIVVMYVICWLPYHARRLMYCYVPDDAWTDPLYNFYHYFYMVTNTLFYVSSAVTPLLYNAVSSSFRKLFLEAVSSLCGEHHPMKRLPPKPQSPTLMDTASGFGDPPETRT
Description: CHO-K1 cells that had been stably transfected separately with the hNTS1 or hNTS2 genes were cultured in 150 mm (500 cm^2) Petri plates with 35 ml of Dulbecco's modified Eagle's medium containing 100 μM minimal essential medium nonessential amino acids (Life Technologies, Inc.) supplemented with 5% (v/v) FetalClone II bovine serum product (Hyclone Labs, Logan, Utah). CHO cells (subculture 7-15) were harvested at confluence by aspiration of the medium, followed by a wash with ice-cold 50 mM Tris-HCl buffer, pH=7.4, which was discarded, resuspension in 5-15 ml of Tris-HCl, scraping the cells with a plastic spatula into a centrifuge tube, and collection of cells by centrifugation at 300×g for 5 min at 4° C., in a GPR centrifuge (Beckman Instruments, Fullerton, Calif.). The cellular pellet (in Tris-HCl buffer) was stored at −180° C. until the radioligand binding was performed.
Incubation was at 20° C. for 40 min. The assay was routinely terminated by addition of ice-cold 0.9% NaCl (5×1.5 ml), followed by rapid filtration through a GF/B filter strip that had been pretreated with 0.2% or 2% polyethyleneimine. […] Data were analyzed using the LIGAND program.
Curves were generated using the LIGAND program. […] Data are the means of duplicate determinations and are representative results from one of at least three independent experiments.

[1] = Degradation of peptides in plasma in vitro (stability to plasma peptidases); assay type: in vitro ADME; conditions: peptide incubated with human (FIG. 4) or rat plasma
Description: All peptides that were stable (half-lives >100 h), such as NT66, NT67, NT69, NT72, and NT73, have either a blocked amino group (N-Methyl-Arg) or a D-amino in the 8 or 9 position (Table 4).

[2] = read-out: hNTS1 Geometric Mean ∀ SEM (equilibrium dissociation constant Kd)
[3] = Table 2, read-out: hNTS2 Geometric Mean ∀ SEM (equilibrium dissociation constant Kd)

| Compound | hNTS1 Selectivity (hNTS1) | hNTS2 Selectivity (hNTS2; Table 2, hNTS2 over hNTS1) | Kd (hNTS1; [2]) [nM] | Kd (hNTS2; [3]) [nM] | also measured |
| --- | --- | --- | --- | --- | --- |
| CC(C)C[C@H](NC(=O)[C@@H](NC(=O)[C@H](Cc1cccc2[nH]ccc12)NC(=O)[C@@H]1CCCN1C(=O)[C@H](N)CCCCN)C(C)(C)C)C(=O)O [NT72, [D-Lys^9,L-neo-Trp^11,tert-Leu^12]NT(9-13)] (H-[dK]P[Ala(indol-4-yl)][Tle]L-OH; N-terminus and C-terminus assumed) | 41.0 | 0.02 |  |  | Kd (hNTS1; text, read-out: Kd at hNTS1): 34 nM; hNTS2 Selectivity (hNTS2; Table 4): — (“—“ indicates higher affinity for hNTS1); Kd (hNTS2; text, read-out: Kd at hNTS2): 1400 nM; half-life ([1]; read-out: half-lives in plasma): > 100 h |
| CC(C)C[C@H](NC(=O)[C@@H](NC(=O)[C@H](Cc1c[nH]c2ccccc12)NC(=O)[C@@H]1CCCN1C(=O)[C@H](CCCNC(=N)N)NC(=O)[C@H](N)CCCCN)C(C)(C)C)C(=O)O [NT66T, [D-Lys^8,L-Trp^11,tert-Leu^12]NT(8-13)] (H-[dK]RPW[Tle]L-OH; N-terminus and C-terminus assumed) | 0.1 | 7.7 | 140 ± 19 | 18.1 ± 0.7 |  |
| CC[C@H](C)[C@H](NC(=O)[C@H](Cc1ccc(O)cc1)NC(=O)[C@@H]1CCCN1C(=O)[C@H](CCCNC(=N)N)NC(=O)[C@H](N)CCCCN)C(=O)N[C@@H](CC(C)C)C(=O)O [NT02, [D-Lys^8]NT(8-13)] (H-[dK]RPYIL-OH; N-terminus and C-terminus assumed) | 4.6 | 0.2 |  | 4.6 ± 0.5 |  |
| RRGYIL [NT07, [Gly^10]NT(8-13)] | 0.7 | 1.4 |  |  | Kd (hNTS1): 1380 ± 50 nM; Kd (hNTS2): 970 ± 40 nM |
| KRPYIL [NT17, [L-Lys^8]NT(8-13)] | 4.0 | 0.2 | 0.25 ± 0.02 | 1.2 ± 0.2 |  |
| CC[C@H](C)[C@H](NC(=O)[C@@H](Cc1ccc(O)cc1)NC(=O)[C@@H]1CCCN1C(=O)[C@@H](CCCN)NC(=O)[C@@H](N)CCCNC(=N)N)C(=O)N[C@@H](CC(C)C)C(=O)O [NT37, [D-Orn^9,D-Tyr^11]NT(8-13)] (H-R[dOrn]P[dY]IL-OH; N-terminus and C-terminus assumed) |  |  |  | 1800 ± 100 | binding / Kd at hNTS1 in words (hNTS1; text b54): no detectable binding; Kd at hNTS2 in words (hNTS2; text b54): micromolar Kd's |
| RRPYLL [NT09, [L-Leu^12]NT(8-13)] | 0.3 | 2.9 |  |  | Kd (hNTS1): 7.2 ± 0.6 nM; Kd (hNTS2): 2.4 ± 0.3 nM |
| CC[C@H](C)[C@H](NC(=O)[C@H](Cc1ccc(O)cc1)NC(=O)[C@@H]1CCCN1C(=O)[C@H](CCCN)NC(=O)[C@@H](N)CCCNC(=N)N)C(=O)N[C@@H](CC(C)C)C(=O)O [NT23, [L-Orn^9]NT(8-13)] (H-R[Orn]PYIL-OH; N-terminus and C-terminus assumed) | 1.6 | 0.6 | 0.94 ± 0.06 | 1.5 ± 0.1 |  |
| CC[C@H](C)[C@H](NC(=O)[C@H](Cc1ccc(O)cc1)NC(=O)[C@@H]1CCCN1C(=O)[C@H](CCCN)NC(=O)[C@H](CCCNC(=N)N)NC(=O)[C@@H]1CCCN1C(=O)[C@H](CCCCN)NC(=O)[C@H](CC(N)=O)NC(=O)[C@H](CCC(=O)O)NC(=O)[C@H](Cc1ccc(O)cc1)NC(=O)[C@H](CC(C)C)NC(=O)[C@@H]1CCC(=O)N1)C(=O)N[C@@H](CC(C)C)C(=O)O [NT60, [L-Orn^9]NT(1-13)] ([pGlu]LYENKPR[Orn]PYIL-OH; C-terminus assumed) | 5.4 | 0.2 | 3.2 ± 0.1 | 17 ± 2 |  |
| CC[C@H](C)[C@H](NC(=O)[C@H](Cc1ccc(O)cc1)NC(=O)[C@@H]1CCCN1C(=O)[C@@H](N)CCCN)C(=O)N[C@@H](CC(C)C)C(=O)O [NT34, [L-Orn^9]NT(9-13)] (H-[Orn]PYIL-OH; N-terminus and C-terminus assumed) | 4.0 | 0.3 | 300 ± 50 | 1190 ± 40 |  |
| CC[C@H](C)[C@H](NC(=O)[C@H](Cc1ccc(O)cc1)NC(=O)[C@@H]1CCCN1C(=O)[C@@H](CCCN)NC(=O)[C@H](N)CCCN)C(=O)N[C@@H](CC(C)C)C(=O)O [NT28, [D-Orn^8,D-Orn^9]NT(8-13)] | 3.2 | 0.3 | 600 ± 20 | 1900 ± 100 |  |
| CN[C@@H](CCCNC(=N)N)C(=O)N[C@H](CCCN)C(=O)N1CCC[C@H]1C(=O)N[C@@H](Cc1cccc2[nH]ccc12)C(=O)N[C@H](C(=O)N[C@@H](CC(C)C)C(=O)O)C(C)(C)C [NT78, [N-methyl-Arg^8,D-Orn^9,L-neo-Trp^11,tert-Leu^12]NT(8-13)] (H-[NMeR][dOrn]P[Ala(indol-4-yl)][Tle]L-OH; C-terminus assumed) | 0.3 | 3.4 | 1300 ± 400 | 380 ± 40 |  |
| CC[C@H](C)[C@H](NC(=O)[C@H](Cc1ccc(O)cc1)NC(=O)[C@@H]1CCCN1C(=O)[C@H](CCCCN)NC(=O)[C@H](N)CCCNC(=N)N)C(=O)N[C@@H](CC(C)C)C(=O)O [NT15, [D-Arg^8,L-Lys^9]NT(8-13)] (H-[dR]KPYIL-OH; N-terminus and C-terminus assumed) | 4.0 | 0.2 |  |  | Kd (hNTS1): 3.5 ± 0.5 nM; Kd (hNTS2): 18 ± 2 nM |
| CC[C@H](C)[C@H](NC(=O)[C@H](Cc1ccc(O)cc1)NC(=O)[C@@H]1CCCN1C(=O)[C@H](CCCNC(=N)N)NC(=O)[C@@H](N)CCN)C(=O)N[C@@H](CC(C)C)C(=O)O [NT29, [DAB^8]NT(8-13)] (H-[Dab]RPYIL-OH; N-terminus and C-terminus assumed) | 5.6 | 0.2 | 1.2 ± 0.1 | 6.5 ± 0.3 |  |
| CC[C@H](C)[C@H](NC(=O)[C@H](Cc1ccc(O)cc1)NC(=O)[C@@H]1CCCN1C(=O)[C@H](CCCNC(=N)N)NC(=O)[C@H](N)CCCN)C(=O)N[C@@H](CC(C)C)C(=O)O [NT22, [D-Orn^8]NT(8-13)] (H-[dOrn]RPYIL-OH; N-terminus and C-terminus assumed) | 3.2 | 0.3 | 1.9 ± 0.2 | 5.9 ± 0.2 |  |
| CN[C@@H](CCCNC(=N)N)C(=O)N[C@H](CCCN)C(=O)N1CCC[C@H]1C(=O)N[C@@H](Cc1c[nH]c2ccccc12)C(=O)N[C@H](C(=O)N[C@@H](CC(C)C)C(=O)O)C(C)(C)C [NT78T, [N-methyl-Arg^8,D-Orn^9,L-Trp^11,tert-Leu^12]NT(8-13)] (H-[NMeR][dOrn]PW[Tle]L-OH; N-terminus and C-terminus assumed) | 0.5 | 2.1 | 1400 ± 300 | 660 ± 50 |  |
| CC[C@H](C)[C@H](NC(=O)[C@H](Cc1cccc2[nH]ccc12)NC(=O)[C@@H]1CCCN1C(=O)[C@H](CCCNC(=N)N)NC(=O)[C@@H](N)CCCNC(=N)N)C(=O)N[C@@H](CC(C)C)C(=O)O [NT64L, [L-neo-Trp^11]NT(8-13)] |  |  |  |  | degradation in plasma [1]: rapidly degraded |
| CC[C@H](C)[C@H](NC(=O)[C@H](Cc1cccc2ccccc12)NC(=O)[C@@H]1CCCN1C(=O)[C@H](CCCNC(=N)N)NC(=O)[C@H](CCCNC(=N)N)NC(=O)[C@@H]1CCCN1C(=O)[C@H](CCCCN)NC(=O)[C@H](CC(N)=O)NC(=O)[C@H](CCC(=O)O)NC(=O)[C@H](Cc1ccc(O)cc1)NC(=O)[C@H](CC(C)C)NC(=O)[C@@H]1CCC(=O)N1)C(=O)N[C@@H](CC(C)C)C(=O)O [NT62, [L-3,1-Nal^11]NT(1-13)] ([pGlu]LYENKPRRP[1Nal]IL-OH; C-terminus assumed) | 1.7 | 0.6 | 8.4 ± 0.3 | 14.2 ± 0.5 |  |
| CC[C@H](C)[C@H](NC(=O)[C@H](Cc1ccc(O)cc1)NC(=O)[C@@H]1CCCN1C(=O)[C@H](CCN)NC(=O)[C@@H](N)CCN)C(=O)N[C@@H](CC(C)C)C(=O)O [NT31, [DAB^8,DAB^9]NT(8-13)] (H-[Dab][Dab]PYIL-OH; N-terminus and C-terminus assumed) | 9.1 | 0.1 | 2.1 ± 0.3 | 19.5 ± 0.7 |  |
| CC(C)C[C@H](NC(=O)[C@@H](NC(=O)[C@H](Cc1c[nH]c2ccccc12)NC(=O)[C@@H]1CCCN1C(=O)[C@@H](CCCN)NC(=O)[C@@H](N)CCCNC(=N)N)C(C)(C)C)C(=O)O [NT77T, [D-Orn^9,L-Trp^11,tert-Leu^12]NT(8-13)] (H-R[dOrn]PW[Tle]L-OH; N-terminus and C-terminus assumed) | 0.2 | 4.8 | 1530 ± 80 | 320 ± 20 |  |
